For four compounds, melting point results are on record in US7105548B2, “Heteroaryl substituted triazole modulators of metabotropic glutamate receptor-5” (Merck & Co., Inc., priority 2001, dated 2006).

Counter-ions that a name gives are not always drawn.

For the compound `Clc1cccc(-n2cnc(-c3ccccn3)n2)c1` (as salt: hydrochloride) [Example 1, 2-[1-(3-chlorophenyl)-1H-1,2,4-triazol-3-yl]pyridine], the melting point – broadly, the temperature of the solid-liquid transition – was in the range of 221 to 223 °C.
The result for `N#Cc1cccc(-c2ncn(-c3ccccn3)n2)c1` (as salt: hydrochloride) [Example 3, 3-(1-pyridin-2-yl-1H-1,2,4-triazol-3-yl)benzonitrile] reads 185 to 188 °C; that for `Clc1cccc(-c2ncn(-c3ccccn3)n2)c1` (as salt: hydrochloride) [Example 4, 2-[3-(3-chlorophenyl)-1H-1,2,4-triazol-1-yl]pyridine], 125 to 128 °C.
The same measure for `N#Cc1cccc(-n2cnc(-c3ccccn3)n2)c1` [Example 2, 3-(3-pyridin-2-yl-1H-1,2,4-triazol-1-yl)benzonitrile]: 194 to 195 °C.
